Laboratory results: patent EP0365134A1, “Synergistic compositions of renal dopaminergic agent and angiotensin converting enzyme inhibitors” (priority 1988, dated 1990)

Test: Renal clearance study in unanesthetized dogs: effective renal plasma flow (PAH clearance) and glomerular filtration rate (creatinine clearance)
Format: in vivo
Details: alone
Method: A modification of the renal function protocol, described in the prior art, was used for renal clearance studies in adult, trained, unanesthetized, fasted, female mongrel dogs, lightly restrained on their backs on a cradle-like board constructed specifically for this purpose. […] All dogs were given an oral water load of 500 ml of tap water thirty minutes prior to initiation of the study. […] Suitable plasma levels of creatinine and p-aminohippuric acid were obtained by a thirty minute infusion of this solution prior to starting of the initial urine collection (U₁) In addition, 1.5 ml/kg of a 1% creatinine solution in phosphate buffer was injected intravenously fifteen minutes prior to collection of U₁. Replicate urine collections were obtained at ten minute intervals throughout the experiment. The bladder was emptied by an indwelling catheter and complete urine collections were assured by rinsing the bladder with 10 mls of warm water at the end of each collection interval. This procedure was followed by an air washout. Venous blood samples were drawn from an indwelling catheter at the mid-point of each clearance period. Urine volumes were recorded at the time of collection. Plasma and urine samples were stored frozen, after collection, until analyzed. Analyses for creatinine and p-aminohippuric acid were made, by colorimetry, using standard AutoAnalyzer methodologies. These analyses were made simultaneously on each sample. Peak intensities were identified electronically, recorded on "on-line" teletype, stored and subsequently analyzed mathematically by time-shared computer against appropriate standards. Data were computed from linear least square regression lines, and quality control standards were analyzed simultaneously to evaluate system reproducibility and reliability. The bladder was emptied upon beginning the study and three control clearances (U₁-U₃, Phase 1) were obtained. […] Post-drug clearance C₄-C₆, C₇-C₉, C₁₀-C₁₂ (Phases II, III and IV) were collected immediately, with no delay between C₃ and C₄. […] Four dogs were used for each treatment. All compounds were weighed as free base content.

CS(=O)(=O)O.Oc1ccc(C2CNCCc3c2cc(O)c(O)c3Cl)cc1 (centres unmarked) [Fenoldopam, 6-Chloro-7,8-dihydroxy-1-(4-hydroxyphenyl)-2,3,4,5-tetrahydro-1H-3-benzazepine methyl sulfonate]
ERPF ( % from control) (Fenoldopam 2.5 mg/kg orally): 34 ± 5 % from control | GFR ( % from control) (Fenoldopam 2.5 mg/kg orally): -2 ± 2 % from control | ERPF ( % from control) (Fenoldopam 5.0 mg/kg orally): 47 ± 16 % from control | GFR ( % from control) (Fenoldopam 5.0 mg/kg orally): 6 ± 5 % from control | ERPF ( % from control) (Fenoldopam 10 mg/kg orally): 30 ± 2 % from control | GFR ( % from control) (Fenoldopam 10 mg/kg orally): -1 ± 2 % from control | ERPF ( % from control) (Fenoldopam 20 mg/kg orally): 44 ± 15 % from control | GFR ( % from control) (Fenoldopam 20 mg/kg orally): 1 ± 3 % from control
